Reference: EP0641797A1, “Cephem derivatives and antimicrobial agents containing the same” (KATAYAMA SEIYAKUSYO CO. Ltd., priority 1993, dated 1995)
Values after ≈ are worked out from the molar mass of the structure shown. Like-named read-outs stand apart in the source and are kept apart here.

Legend:
Test in all cases: MIC on standard strains, standard method of Japan Society of Chemotherapy
Format in all cases: cell-based
[1] = tested on: A. calcoaceticos T59; conditions: read-out: MIC
Description: (§1) Antimicrobial activity of the compounds of the present invention were measured using CTM (cefotiam) and FMOX (flomoxef) as control drugs in accordance with the standard method of Japan Society of Chemotherapy. Of the 25 standard strains used in this test, Staphylococcus aureus 167 and Staphylococcus aureus 195 belong to MRSA.
(§2) In these tables, drugs tested are shown by the corresponding examples in which they were synthesized.

[2] = tested on: S. marcescens IAM 1184
Description: as §1, §2

[3] = tested on: P. aeruginosa AKR17; conditions: Pseudomonas aeruginosa
Description: as §1, §2

[4] = tested on: S. aureus 167; conditions: Staphylococcus aureus; S. aureus 167 (MRSA)
Description: as §1, §2

[5] = tested on: P. mirabilis IFO 3849
Description: as §1, §2

[6] = tested on: C. freundii ATCC 8090; conditions: Citrobacter freundii, ATCC8090, C. freundii ATCC 8090; read-out: MIC
Description: as §1, §2

[7] = tested on: S. marcescens No. 16-2; conditions: Serratia marcescens, NO.162
Description: as §1, §2

[8] = tested on: E. coli CSH2(RE45)
Description: as §1, §2

[9] = tested on: S. aureus Smith
Description: as §1, §2

[10] = tested on: M. luteus ATCC 9341; conditions: Micrococcus luteus, ATCC9341
Description: as §1, §2

[11] = tested on: P. vulugaris OX-19
Description: as §1, §2

[12] = tested on: A. faecalis ATCC 3750
Description: as §1, §2

[13] = tested on: M. morganii IFO 3848; conditions: Morganella morganii, IFO3848
Description: as §1, §2

[14] = tested on: S. aureus 209p JC-1
Description: as §1, §2

[15] = tested on: P. aeruginosa NCTC 10490
Description: as §1, §2

[16] = tested on: K. pneuminiae No. 42
Description: as §1, §2

[17] = tested on: S. aureus 195; conditions: Staphylococcus aureus; S. aureus 195 (MRSA)
Description: as §1, §2

[18] = tested on: S. epidemidis IAM 1296
Description: as §1, §2

[19] = tested on: E. coli CSH2(RK1); conditions: Escherichia coli
Description: as §1, §2

[20] = tested on: P. cepacia; conditions: Burkholderia cepacia, read-out: MIC
Description: as §1, §2

[21] = tested on: E. cloacae Nek39; conditions: Enterobacter cloacae, NEK39, E. cloacae Nek39; read-out: MIC
Description: as §1, §2

[22] = tested on: B. subtilis ATCC 6633; conditions: Bacillus subtilis, ATCC6633, B. subtilis ATCC 6633; read-out: MIC
Description: as §1, §2

[23] = tested on: E. cloacae ATCC 13407
Description: as §1, §2

[24] = tested on: E. coli NHIJ JC-2; conditions: Escherichia coli, NHIJJC2
Description: as §1, §2

[25] = tested on: K. pneuminiae IFO 3317
Description: as §1, §2

[26] = Serratia marcescens, IAM1184, S. marcescens IAM 1184, read-out: MIC
[27] = Proteus mirabilis, IFO3849, P. mirabilis IFO 3849, read-out: MIC
[28] = Staphylococcus aureus, read-out: MIC
[29] = Alcaligenes faecalis, ATCC3750, A. faecalis ATCC 3750, read-out: MIC
[30] = Staphylococcus aureus, 209P, read-out: MIC
[31] = Pseudomonas aeruginosa, NCTC10490, P. aeruginosa NCTC 10490, read-out: MIC
[32] = Enterobacter cloacae, ATCC13407, E. cloacae ATCC 13407, read-out: MIC

Compound | MIC [1] [µg/mL] | MIC [2, 26] [µg/mL] | MIC [3] [µg/mL] | MIC [4] [µg/mL] | MIC [5, 27] [µg/mL] | MIC [6] [µg/mL] | MIC [7] [µg/mL] | MIC ([8]; Escherichia coli) [µg/mL] | MIC [9, 28] [µg/mL] | MIC [10] [µg/mL] | MIC [11] [µg/mL] | MIC [12, 29] [µg/mL] | MIC [13] [µg/mL] | MIC [14, 30] [µg/mL] | MIC [15, 31] [µg/mL] | MIC [16] [µg/mL] | MIC [17] [µg/mL] | MIC [18] [µg/mL] | MIC [19] [µg/mL] | MIC [20] [µg/mL] | further results
CN(C)CCn1nnnc1SCC1=C(C(=O)O)N2C(=O)[C@@H](NC(=O)Cc3csc(N)n3)[C@H]2SC1 [CTM, cefotiam, reference compound] | > 100 | 6.25 (≈ 11.9 µM) | > 100 | > 100 | 0.78 (≈ 1.48 µM) | 0.78 (≈ 1.48 µM) | > 100 | 0.2 (≈ 0.38 µM) | 1.56 (≈ 2.97 µM) | 0.39 (≈ 0.742 µM) | 0.39 (≈ 0.742 µM) | 6.25 (≈ 11.9 µM) | 0.2 (≈ 0.38 µM) | 1.56 (≈ 2.97 µM) | > 100 | 0.39 (≈ 0.742 µM) | > 100 | 0.39 (≈ 0.742 µM) | 0.2 (≈ 0.38 µM) | > 100 | MIC ([2]; S. marcescens IAM 1184): 3.13 µg/mL (≈ 5.95 µM); MIC ([5]; P. mirabilis IFO 3849): 0.39 µg/mL (≈ 0.742 µM); MIC [8]: 0.39 µg/mL (≈ 0.742 µM); MIC [9]: 0.78 µg/mL (≈ 1.48 µM); MIC ([12]; A. faecalis ATCC 3750): 3.13 µg/mL (≈ 5.95 µM); MIC [14]: 0.78 µg/mL (≈ 1.48 µM); MIC ([15]; P. aeruginosa NCTC 10490): 100 µg/mL (≈ 190 µM); MIC [21]: > 100 µg/mL; MIC [22]: 0.39 µg/mL (≈ 0.742 µM); MIC ([23]; E. cloacae ATCC 13407): >100 µg/mL; MIC [23, 32]: 50 µg/mL (≈ 95.1 µM); MIC [24]: 0.2 µg/mL (≈ 0.38 µM); MIC [25]: 0.2 µg/mL (≈ 0.38 µM)
NC(=O)Cc1ccc[n+](CC2=C(C(=O)[O-])N3C(=O)[C@@H](NC(=O)/C(=N\O)c4nsc(N)n4)[C@H]3SC2)c1 [Ex. 1, 7β-[2-(5-amino-1,2,4-thiadiazol-3-yl)-2-syn-hydroxyiminoacetamido]-3-(3-carbamoylmethylpyridinio)methyl-3-cephem-4-carboxylate] | 3.13 (≈ 6.04 µM) | 0.78 (≈ 1.5 µM) | > 100 | 12.5 (≈ 24.1 µM) | 1.56 (≈ 3.01 µM) | 1.56 (≈ 3.01 µM) | > 100 | 3.13 (≈ 6.04 µM) | 1.56 (≈ 3.01 µM) | 0.2 (≈ 0.386 µM) | 3.13 (≈ 6.04 µM) | 6.25 (≈ 12.1 µM) | 1.56 (≈ 3.01 µM) | 0.78 (≈ 1.5 µM) | 0.78 (≈ 1.5 µM) | 1.56 (≈ 3.01 µM) | 12.5 (≈ 24.1 µM) | 0.39 (≈ 0.752 µM) | 3.13 (≈ 6.04 µM) | > 100 | MIC [21]: 100 µg/mL (≈ 193 µM); MIC [22]: 0.39 µg/mL (≈ 0.752 µM); MIC [23, 32]: 3.13 µg/mL (≈ 6.04 µM); MIC [24]: 1.56 µg/mL (≈ 3.01 µM); MIC [25]: 0.78 µg/mL (≈ 1.5 µM)
NC(=O)Nc1ccc[n+](CC2=C(C(=O)[O-])N3C(=O)[C@@H](NC(=O)/C(=N\O)c4nsc(N)n4)[C@H]3SC2)c1 [Ex. 2, 7β-[2-(5-amino-1,2,4-thiadiazol-3-yl)-2-syn-hydroxyiminoacetamido]-3-(3-ureidopyridinio)methyl-3-cephem-4-carboxylate] | 1.56 (≈ 3 µM) | 0.39 (≈ 0.751 µM) | > 100 | 6.25 (≈ 12 µM) | 1.56 (≈ 3 µM) | 0.78 (≈ 1.5 µM) | 100 (≈ 192 µM) | 0.78 (≈ 1.5 µM) | 0.78 (≈ 1.5 µM) | 0.05 (≈ 0.0962 µM) | 1.56 (≈ 3 µM) | 3.13 (≈ 6.02 µM) | 0.78 (≈ 1.5 µM) | 0.39 (≈ 0.751 µM) | 0.78 (≈ 1.5 µM) | 0.78 (≈ 1.5 µM) | 3.13 (≈ 6.02 µM) | 0.2 (≈ 0.385 µM) | 1.56 (≈ 3 µM) | > 100 | MIC [21]: 100 µg/mL (≈ 192 µM); MIC [22]: 0.39 µg/mL (≈ 0.751 µM); MIC [23, 32]: 6.25 µg/mL (≈ 12 µM); MIC [24]: 0.78 µg/mL (≈ 1.5 µM); MIC [25]: 0.39 µg/mL (≈ 0.751 µM)
